Results as given in ChEMBL document CHEMBL1137773, “Novel lead structures for p38 MAP kinase via FieldScreen virtual screening” (J Med Chem, 2009).
pIC50: −log10 of the molar value.

Key:
[1] = Inhibition of p38 MAPK at 10 uM by ELISA
[2] = Inhibition of p38 MAPK by ELISA

Row | Compound | inhibition [1] [%] | pIC50 [2]
1 | CC(C)(C)c1nnc2sc(COc3ccc(F)cc3)nn12 | 53 | 5.33
2 | COc1ccccc1Cc1nnc2sc(COc3ccc(F)cc3)nn12 | 79 | 6.19
3 | C=CCNc1sc(C(=O)c2ccc(F)cc2)c(N)c1C#N | 46 | –
4 | Cc1cccc(OCc2nn3c(-c4ccccc4Cl)nnc3s2)c1 | 76 | 5.70
5 | COc1ccc(OCc2nnc3sc(-c4ccccc4Cl)nn23)cc1 | 34 | –
6 | CC1Cc2nc(SCC(N)=O)n(-c3ccc(F)cc3)c(=O)c2S1 (stereo unspecified) | 4 | –
7 | Cc1ccccc1Cc1nnc2sc(COc3ccccc3)nn12 | 33 | –
8 | Cn1nc(CC(=O)Nc2ccc(Br)cc2)c2ccccc2c1=O | 15 | –
9 | CCOC(=O)C(C)Sc1nc2c(c(=O)n1-c1ccc(F)cc1)SCC2 (stereo unspecified) | 23 | –
10 | Fc1ccc(-c2nnc3sc(CCc4ccccc4)nn23)cc1 | 32 | –
11 | CC(C)(C)c1ccc(OCc2nn3c(Cc4ccccc4)nnc3s2)cc1 | 12 | –
12 | CC(C)Oc1ccc(OCCSc2nc(=O)c3ccccc3[nH]2)cc1 | 23 | –
13 | c1ccc(OCc2nn3c(-c4ccccc4)nnc3s2)cc1 | 39 | –
14 | Clc1ccc(-c2nnc3sc(CCc4ccccc4)nn23)c(Cl)c1 | 45 | –
15 | CCC(Oc1ccccc1)c1nn2c(-c3ccoc3C)nnc2s1 (stereo unspecified) | 31 | –
16 | COc1ccc(OCc2nn3c(-c4ccccc4Cl)nnc3s2)cc1 | 64 | 5.41
17 | Cc1ccccc1Cc1nnc2sc(COc3ccc(F)cc3)nn12 | 36 | –
18 | Fc1ccccc1-c1nnc2sc(COc3ccccc3)nn12 | 73 | 5.51
19 | COc1ccc(Cc2nn3c(-c4ccccc4Cl)nnc3s2)cc1 | 83 | 6.36
20 | COc1cccc(OCc2nn3c(-c4ccccc4)nnc3s2)c1 | 11 | –
21 | COc1ccccc1NC1CC(=O)N(c2ccc(Cl)cc2)C1=O (stereo unspecified) | 20 | –
22 | Oc1ccc2ccccc2c1C1NN=C(c2ccccc2)S1 (stereo unspecified) | 21 | –
23 | Cc1occc1-c1nnc2sc(COc3ccc(F)cc3)nn12 | 21 | –
24 | Cc1nn(Cc2ccccc2)c2c1C(c1ccc(Br)cc1)C(C#N)=C(N)O2 (stereo unspecified) | 40 | –
25 | Cc1sc(NC(=O)c2ccc(Cl)cc2)c(C(=O)c2ccccc2)c1C | 31 | –
26 | Fc1ccc(OCc2nn3c(Cc4ccccc4)nnc3s2)cc1 | 32 | –
27 | CCSc1ccccc1C(=O)N1CCc2ccccc21 | 4 | –

Row | Compound | inhibition [1] [%] | pIC50 [2]
28 | Clc1ccccc1-c1nnc2sc(COc3ccccc3)nn12 | 76 | 6.10
29 | Cc1cccc(CC(=O)N(c2ccc(Br)cc2)C2C=CS(=O)(=O)C2)c1 (stereo unspecified) | 2 | –
30 | Cc1ccc(NC(=O)Nc2c(Cl)cccc2Cl)c2c1CC(C)(C)O2 | 66 | –
31 | O=C(c1cn(Cc2ccccc2F)c2ccccc12)C1CC1 | 23 | –
32 | Cc1ccc(CNC(=O)CN(c2cccc(Cl)c2)S(C)(=O)=O)cc1 | 1 | –
33 | Cc1nnc2sc(COc3ccccc3)nn12 | 18 | –
34 | c1ccc(CCc2nn3c(-c4ccncc4)nnc3s2)cc1 | 26 | –
35 | Clc1ccccc1-c1nnc2sc(CCc3ccccc3)nn12 | 72 | 5.59
36 | Cc1onc(-c2c(Cl)cccc2Cl)c1C(=O)N1CCCCC1C (stereo unspecified) | 14 | –
37 | CCC(O)Cc1nc(N)c(C#N)c(-c2ccccc2OC)c1C (stereo unspecified) | 20 | –
38 | Brc1ccccc1-c1nnc2sc(COc3ccccc3)nn12 | 80 | 5.91
39 | NC(=O)C(c1ccc(Cl)cc1)c1ccc(C(=O)c2ccccc2)cc1 (stereo unspecified) | 26 | –
40 | CCc1cc2c(SCC(=O)Nc3ccc(Br)cc3)ncnc2s1 | 14 | –
41 | Cc1cc(-c2nnc3sc(COc4ccc(F)cc4)nn23)n(C)n1 | 22 | –
42 | COc1ccccc1Cc1nnc2sc(COc3ccccc3)nn12 | 77 | 6.13
43 | Clc1cccc(-c2nnc3sc(COc4ccccc4)nn23)c1 | 3 | –
44 | CC(C)(Oc1ccccc1)c1nn2c(-c3ccoc3)nnc2s1 | 24 | –
45 | COc1ccc(OCc2nn3c(-c4ccc(Cl)cc4Cl)nnc3s2)cc1 | 31 | –
46 | FC(F)(F)c1nnc2sc(COc3ccccc3)nn12 | 16 | –
47 | CC(C)(C)c1nnc2sc(COc3ccccc3)nn12 | 61 | 5.40
48 | COc1ccc(-c2nnc3sc(COc4ccc(F)cc4)nn23)cc1 | 31 | –
49 | Cc1sc2ncnc(SCC(=O)c3ccc(F)cc3)c2c1C | 24 | –
50 | CCc1ccc(OCC(=O)Nc2cccc3nc(C)ccc23)cc1 | 4 | –
51 | CCn1c(SCc2ccccc2Cl)nc2ccccc2c1=O | 28 | –
52 | O=C(Nc1ccc(F)cc1)c1cccc(S(=O)(=O)Nc2ccccc2)c1 | 15 | –
53 | Cc1occc1-c1nnc2sc(C(C)Oc3ccccc3)nn12 (stereo unspecified) | 30 | –
54 | Cc1ccccc1OCc1nn2c(-c3ccccc3Cl)nnc2s1 | 65 | 5.45
